Paper PMC10089224, “A macrocyclic peptide inhibitor traps MRP1 in a catalytically incompetent conformation” (Proceedings of the National Academy of Sciences of the …, 2023)
Entries after “also recorded” stand apart in the source; their conditions may differ. Where a SMILES comes first, the peptide text is derived from it. Bridges are numbered along the chain shown (N, C = ends). [ ]: non-standard residue; d: D form.

Tests used:
P-glycoprotein (Pgp) = details: ref [26]–[28]; cited from earlier work
Text: Abrogation of cancer drug resistance by pharmacological inhibition of MRP1 has long been pursued ([10]). […] However, the majority of available MRP1 inhibitors are repurposed from other drug discovery efforts and thus have inherent off-target issues ([24], [25]).

bMRP1 = target: T1, bMRP1 (Bos taurus, UniProt Q8HXQ5); assay: ATPase activity of detergent-solubilized bMRP1, inhibition by CPI1 (basal and LTC4-stimulated); assay type: biochemical, bovine
T1 construct: eGFP (C, cleaved yes); PreScission protease site (remnant after cleavage) (C); made in house; host or cells: HEK293S GnTI- cells infected with baculovirus (BacMam) made in Sf9 cells
T1 sequence (Q8HXQ5 whole entry): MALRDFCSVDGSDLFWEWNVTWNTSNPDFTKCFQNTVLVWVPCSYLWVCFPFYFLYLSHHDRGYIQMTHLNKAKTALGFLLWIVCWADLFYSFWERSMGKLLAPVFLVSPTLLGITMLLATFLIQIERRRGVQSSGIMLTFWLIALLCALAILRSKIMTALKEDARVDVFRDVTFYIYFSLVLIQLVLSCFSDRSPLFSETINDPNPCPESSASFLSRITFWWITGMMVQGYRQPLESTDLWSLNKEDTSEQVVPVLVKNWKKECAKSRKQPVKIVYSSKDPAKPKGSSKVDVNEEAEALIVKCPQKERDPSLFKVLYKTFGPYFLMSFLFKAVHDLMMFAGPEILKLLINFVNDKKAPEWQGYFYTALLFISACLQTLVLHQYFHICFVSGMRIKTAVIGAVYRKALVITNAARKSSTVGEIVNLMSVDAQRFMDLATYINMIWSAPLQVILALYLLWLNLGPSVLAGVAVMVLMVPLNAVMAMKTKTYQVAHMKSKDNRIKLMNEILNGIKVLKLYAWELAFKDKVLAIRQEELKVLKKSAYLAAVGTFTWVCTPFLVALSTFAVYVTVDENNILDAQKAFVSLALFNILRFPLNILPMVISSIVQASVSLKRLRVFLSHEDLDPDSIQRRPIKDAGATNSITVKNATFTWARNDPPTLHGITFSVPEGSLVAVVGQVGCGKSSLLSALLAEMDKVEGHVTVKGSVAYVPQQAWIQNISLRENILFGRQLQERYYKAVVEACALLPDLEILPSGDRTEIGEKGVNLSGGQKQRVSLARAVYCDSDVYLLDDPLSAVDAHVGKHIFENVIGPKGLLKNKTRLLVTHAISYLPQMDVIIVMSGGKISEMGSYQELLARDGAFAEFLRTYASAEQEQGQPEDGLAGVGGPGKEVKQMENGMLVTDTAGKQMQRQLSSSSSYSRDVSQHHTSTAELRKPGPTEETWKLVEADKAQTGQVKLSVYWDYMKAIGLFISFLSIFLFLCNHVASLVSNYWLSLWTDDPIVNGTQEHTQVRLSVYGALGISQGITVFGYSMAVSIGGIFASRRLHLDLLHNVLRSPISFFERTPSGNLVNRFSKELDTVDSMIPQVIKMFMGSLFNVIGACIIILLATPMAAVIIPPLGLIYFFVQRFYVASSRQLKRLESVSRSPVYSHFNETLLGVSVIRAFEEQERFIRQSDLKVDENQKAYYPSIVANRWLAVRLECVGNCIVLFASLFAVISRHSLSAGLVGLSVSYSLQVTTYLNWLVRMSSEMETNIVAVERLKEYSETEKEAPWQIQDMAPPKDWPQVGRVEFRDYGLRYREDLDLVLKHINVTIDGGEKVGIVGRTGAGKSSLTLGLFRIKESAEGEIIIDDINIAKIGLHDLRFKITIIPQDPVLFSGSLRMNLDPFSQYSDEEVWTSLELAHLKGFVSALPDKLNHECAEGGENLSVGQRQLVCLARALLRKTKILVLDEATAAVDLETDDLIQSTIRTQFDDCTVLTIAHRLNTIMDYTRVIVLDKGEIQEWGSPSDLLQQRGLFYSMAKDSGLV
Protocol: All values reported as the mean ± standard error (SE) of three separate measurements. The statistical significance was calculated using unpaired, parametric, two-sided t tests. Labels: not significant (n.s.), P < 0.05 (*), P < 0.01 (**), P < 0.001 (***) P < 0.0001 (****). […] Rates of ATP hydrolysis were normalized to maximal activity. Data were fit to a modified version of the quadratic binding equation to account for free ligand depletion (Materials and Methods).
All protein purification steps were performed on ice or at 4 °C. Thawed cell pellets were resuspended with a handheld homogenizer (Polytron PT1200E) in a solution of 300 mM NaCl, 50 mM HEPES pH 8.0, 2 mM MgCl2, 2 mM dithiothreitol (DTT), and 20% glycerol with DNase I and protease inhibitors (1 µg/mL aprotinin, 0.6 mM benzamidine, 1 µg/mL leupeptin, 1 µg/mL pepstatin A, 1 mM phenylmethylsulfonyl fluoride, and 100 µg/mL soy trypsin inhibitor). Membranes were solubilized for 1.5 h by addition of 2% lauryl maltose neopentyl glycol and 0.2% cholesteryl hemisuccinate, after which insoluble material was removed by centrifugation for 40 min at 75,000 × g. Supernatant was mixed with GFP nanobody-conjugated Sepharose 4 Fast Flow resin (GE Healthcare) for 1.5 h, after which the slurry was packed into a column and washed with a solution of 0.06% digitonin, 150 mM NaCl, 50 mM HEPES pH 8.0, 2 mM MgCl2, 2 mM DTT, and 5% glycerol. PreScission protease was added to the column at a concentration of 0.35 mg/mL for 3 h to liberate MRP1 or Pgp from the GFP-nanobody resin. Eluate was passed through a glutathione sepharose resin to remove PreScission protease and concentrated with a 100 kDa molecular weight cutoff centrifugal filter. Concentrate was loaded onto a GE Healthcare Superose 6 size exclusion column equilibrated in 0.06% digitonin, 150 mM KCl, 50 mM Tris pH 8.0, 2 mM MgCl2, and 2 mM DTT. Peak fractions were collected, pooled, and concentrated for ATPase assays or freezing cryo-EM grids.
ATPase activity was measured by recording the rate of NADH consumption during ATP regeneration from ADP. […] ATPase activity was quantified by calculating the mean and SEM of at least three separate measurements from a single protein purification for each of bMRP1, hMRP1, and hPgp. Data were fit by nonlinear regression to the Michaelis–Menten equation using GraphPad Prism (Dotmatics).
0 = [R]tot × [L]tot - ([L]tot + [R]tot + Ki)[R·L] + [R·L]^2,
Range normalization factor = (Vmax - Vmin)

hMRP1 = assay: ATPase activity of detergent-solubilized hMRP1, inhibition by CPI1; assay type: biochemical, human; details: Fig. 1C: 1 µM hMRP1, 4 mM ATP, CPI1 25-fold molar excess
Protocol: (§1) Fig. 1. Identification of an MRP1-specific inhibitor. (A) Selection strategy for novel cyclic peptide MRP1 ligands. eGFP: enhanced green fluorescent protein; Nb: anti-eGFP nanobody. (B) CPI1 composition. The first residue in the sequence (Ac^DY1, yellow) is covalently bonded to the 17th residue (C17, green) via a thioether linkage. […] All values reported as the mean ± standard error (SE) of three separate measurements. The statistical significance was calculated using unpaired, parametric, two-sided t tests. Labels: not significant (n.s.), P < 0.05 (*), P < 0.01 (**), P < 0.001 (***) P < 0.0001 (****). […] (D) Dose–response curves of the basal and LTC4-stimulated ATPase activity of bMRP1. Rates of ATP hydrolysis were normalized to maximal activity. Data were fit to a modified version of the quadratic binding equation to account for free ligand depletion (Materials and Methods).
(§2) Bovine and human MRP1, as well as human Pgp, were expressed and purified as described previously. […]
(§3) ATPase activity was measured by recording the rate of NADH consumption during ATP regeneration from ADP. […] NADH consumption was measured by monitoring the rate of NADH fluorescence depletion (λex/λem 340/445 nm) using an Infinite M1000 microplate reader (Tecan) at 28 °C. […]

Pgp = assay: ATPase activity of detergent-solubilized Pgp, inhibition by CPI1; assay type: biochemical, human; details: Pgp 0.5 µM, 4 mM ATP, CPI1 25-fold molar excess; mean ± SE of three separate measurements
Protocol: as §1, §2, §3

| Compound | inhibition of P-glycoprotein (in words) (P-glycoprotein (Pgp)) | Ki (bMRP1) [nM] | affinity of CPI1 for MRP1 (bMRP1; approximate, Fig. 1D, compared with LTC4) | inhibition of ATPase activity (in words) (bMRP1; bMRP1, Fig. 1C: 1 µM bMRP1, 4 mM ATP, CPI1 25-fold molar excess) | mode of inhibition (in words) (bMRP1; with respect to LTC4, inferred from shared binding site in structure and affinity) | inhibition of ATPase activity (in words) (hMRP1) | inhibition of Pgp (in words) (Pgp) |
| --- | --- | --- | --- | --- | --- | --- | --- |
| O=C(NCCCN1CCOCC1)c1cnn2c(-c3ccccc3)cc(-c3ccccc3)nc12 [Reversan] | also inhibit P-glycoprotein | – | – | – | – | – | – |
| CC(C)C[C@@H]1NC(=O)[C@H](CC(N)=O)NC(=O)CNC(=O)[C@H](Cc2c[nH]c3ccccc23)NC(=O)[C@H](Cc2ccccc2)NC(=O)[C@@H](Cc2ccc(O)cc2)NC(=O)CSC[C@@H](C(=O)O)NC(=O)[C@H]([C@@H](C)O)NC(=O)[C@H](CO)NC(=O)[C@H](CC(=O)O)NC(=O)[C@H](Cc2ccccc2)NC(=O)[C@H](CCC(N)=O)NC(=O)[C@H](CCC(=O)O)NC(=O)[C@H](Cc2ccc(O)cc2)NC(=O)[C@H](Cc2ccc(O)cc2)NC(=O)[C@H](Cc2c[nH]c3ccccc23)NC(=O)[C@H](Cc2c[nH]cn2)NC1=O [CPI1] ({CH2CO}-[dY]FWGNLHWYYEQFDSTC-OH; thioether N-17; C-terminus assumed) | – | 70 ± 29 | ~ 100 nM | inhibited the ATPase activity of both human and bovine MRP1 | potent competitive inhibitor of LTC4 | robust inhibition of hMRP1 ATPase activity | only modest inhibition of Pgp when applied at a 25-fold molar excess; also recorded: minimal inhibition of a related multidrug transporter P-glycoprotein |
